The results in this text go back to patent publication US12383578B2, “Carbazate-activated polyvinyl alcohol (PVAC) as a polymer-based antitumoral agent” (CREMED AB (PUBL), priority 2019, dated 2025).

Data set [1] relates to GIST-T1 cells. Briefly: Cell viability assay (CellTiter-Glo, ATP-based). Particulars: biologically relevant concentrations. Further details: species or system human. As to the method:
0.25×10^4-1×10^4 GIST-T1 cells were seeded into each well in a 96-well plate. PVAC, EC, and PVA were added into each well or vehicle (deionized water) with subsequent incubation for 24 or 48 hours. CellTiter-Glo assay (Promega, MI, USA) is an ATP-based luminometric method that was performed according to protocol. In brief, cells were removed from incubator to allow adjust to room temperature after which 100 μL of room temperature CellTiter-Glo was added to each well. The plates were put on a shaker for 5-10 min. Cells rested for 5-10 min before measurement on an EnVision 2103 Multilabel Reader (Perkin Elmer, MA, USA).
In general terms: Cellular ATP, detected with luciferase, serves as a proxy for viable cell number.

Data set [2] deals with MDA-MB-231 tumor cells. Particulars: mouse, in vivo.
Procedure: Following injection of MDA-MB-231 cells into athymic nude mice the animals were monitored twice weekly recording weight, general health and tumor size. When the average tumor size was approximately 100 μL the animals were stratified into three groups of 12 mice per group based on tumor size. All three groups were subjected to 28 days of twice-weekly intra/peri tumoral injections at a volume of 100 μL per injection. One group served as a control group and received NaCl (vehicle) injections. The remaining two groups received different doses of PVAC, as described above. The animals were euthanized on Day 29 and the tumors were excised, weighed, and divided into two parts handled as described above.

On to `CCOC(=O)NN` [EC, ethyl carbazate], for which the Cellular viability result in data set [1] is given as “did not reduce cellular viability”.

For “Poly[1-hydroxyethylene)-ran-(1-hydrazinecarboxylatoethylene)] [PVAC]”, in data set [2], the “Animals euthanized due to infections” value is recorded as “four”.
